{"source": "patent US20080113956A1", "about": "“Substituted Porphyrins” (priority 1997, published 2008)", "tested_on": "lung injury", "assay": "Bronchopulmonary dysplasia model: premature neonatal baboon in 100% oxygen", "assay_type": "in vivo", "description": "Neonatal baboons were delivered prematurely by Caesarian section and then treated either with 100% oxygen or only sufficient PRN FIO2 to maintain adequate arterial oxygenation. To establish the model, thirteen 100% oxygen treated animals and twelve PRN control animals were studied. Treatment with 100% oxygen results in extensive lung injury manifested by days 9 or 10 of exposure and characterized by delayed alveolarization, lung parenchymal inflammation, and poor oxygenation. This is characteristic of the human disease, bronchopulmonary dysplasia and is thought to be mediated, at least in part, by oxidative stress on the developing neonatal lung. In a first trial of Mn TE-2-PyP, a neonatal baboon was delivered at 140 days gestation and placed in 100% oxygen. The animal received 0.5 mg/kg/24 hr Mn TE-2-PyP qd given i.v. in a continuous infusion over the entire 10 day study period."}
{"smiles": "CC[n+]1ccccc1-c1c2nc(c(-c3cccc[n+]3CC)c3ccc([n-]3)c(-c3cccc[n+]3CC)c3nc(c(-c4cccc[n+]4CC)c4ccc1[n-]4)C=C3)C=C2.[Mn+3]", "note": "[MnTE-2-PyP^5+, manganic meso-tetrakis-(N-ethylpyridinium-2-yl)porphyrin]", "values": [{"measurement": "lung pathology: inflammation", "setting": "0.5 mg/kg/24 hr i.v., 10 days", "value": "absence of inflammation"}, {"measurement": "clinical decompensation of the lungs", "setting": "days 9 and 10, 0.5 mg/kg/24 hr i.v.", "value": "no evidence of clinical decompensation"}, {"measurement": "oxygenation index", "setting": "neonatal baboon, 100% oxygen, 0.5 mg/kg/24 hr i.v. continuous infusion, 10 days", "value": "marked improvement"}, {"measurement": "lung pathology: lung injury", "setting": "vs prior animals treated with 100% oxygen", "value": "marked decrease"}]}
